Measurements reported in US8722027B2, “Method for preparing broussonetia kazinoki extract” (Amorepacific Corporation, priority 2010, dated 2014).
Converted amounts (≈) assume the structure as drawn.

How the values were obtained:
mushroom tyrosinase = experiment: Inhibition of tyrosinase activity (L-tyrosine substrate); type: biochemical
Experimental: First, as test samples, arbutin and the composition of Preparation Example 6 were prepared at various concentrations, and an enzyme was added thereto in an amount corresponding to 10 units, after which 0.1M phosphate buffer was added thereto to a final volume of 100 μl. 100 μl of 0.03% L-tyrosine substrate solution was added thereto, and then immediately, the absorbance at 475 nm was measured. Then, the mixture was allowed to react at 37° C. for 10 minutes, after which it was placed on ice to stop the reaction, and the absorbance was measured again.

B16 melanoma cells [1] = experiment: Inhibition of melanin production (α-MSH stimulated); type: cell-based, mouse; details: 100 μg/ml, 1 μM α-MSH
Experimental: (§1) B16 melanoma cells from C57BL/6J (black, a/a) mouse melanoma were purchased from the Cell Line Bank. The cells were cultured in DMEM medium containing 10% fetal bovine serum (LONZA), 50 U/ml of penicillin and 50 μg/ml of […] streptomycin under the conditions of 37° C. and 10% CO2.
B16 melanoma cells were seeded in a 24-well plate at a density of 4×10^4 cells/well and cultured overnight so as to adhere well to the plate. Then, medium containing 1 μM α-MSH for promoting melanin production and each concentration of the test sample of Preparation Example 6 or arbutin was added to each well. The plate was incubated for 72 hours, and then 200 μl of the cell culture medium was taken and the absorbance at 405 nm was measured. Based on the measurement, the amount of melanin was calculated. The calculated amount of melanin was expressed as a percentage relative to the control (not treated with the test material), and the results are shown in Table 9 below.

B16 melanoma cells [2] = experiment: Cytotoxicity measurement (MTT assay); type: cell-based, mouse
Experimental: as §1
B16 melanoma cells were seeded in a 96-well plate at a density of 1×10^4 cells/well and cultured for 1 day. The medium was replaced with fresh medium containing each of arbutin and various concentration of the composition of Preparation Example 6, and the cells were cultured again for 24 hours. 50 μl of an MIT solution obtained by dissolving MIT in cell culture medium at a concentration of 2 mg/ml was added to each well, and medium was added to each well to a final volume of 200 μl, after which the cells were incubated for 3-4 hours. The medium was removed, and the produced formazan crystals were dissolved in 150 μl of DMSO, after which the absorbance of the formazan solution was measured at 540 nm. The measured absorbance was expressed as a percentage relative to the control (not treated with the test material) to evaluate whether the test sample has cytotoxicity.

tyrosinase [3] = experiment: Tyrosinase inhibitory effect (method of Test Example 1-2); type: biochemical; details: 50 mg sample in 100 ml ethanol, diluted 10-fold; 50 μl sample solution; 37° C., 10 minutes; absorbance 490 nm
Experimental: 50 mg of a sample to be evaluated for tyrosinase inhibitory activity was dissolved in ethanol to make 100 ml of a solution. 10 ml of the solution was taken, and ethanol was added thereto to make 100 ml of a sample solution. 500 μl of a substrate solution, 450 μl of purified water and 50 μl of the sample solution are added to and mixed with 500 μl of buffer, and 50 μl of an enzyme (tyrosinase) solution is added to the mixture. The resulting mixture is allowed to react at 37° C. for 10 minutes, and then immediately allowed to stand on ice for 5 minutes, and the absorbance at 490 nm is measured. The tyrosinase inhibitory effect of the sample is evaluated based on the absorbance of the sample compared to the absorbance of a blank sample.

[4] = Partition coefficient in two-phase solvent system; type: physicochemical; details: hexane/ethyl acetate/methanol/water 5/5/5/2
Experimental: The partition coefficient of kazinol C was measured in the following manner First, 1 mg of the extract of Example 3 was placed in a 10-ml test tube, and 2 ml of each of the upper layer solution and lower layer solution of a two-phase solution system, which reached equilibrium, was added thereto, and the mixture was shaken intensively for 1 minute. After the two phases have reached equilibrium, 100 μl of each of the upper layer solution and the lower layer solution was taken, dried, dissolved in 1 ml of ethanol, and analyzed by HPLC. The value obtained by dividing the amount of kazinol C in the upper layer solution by the amount of kazinol C in the lower layer solution was determined as partition coefficient.

tyrosinase [5] = target: T1, tyrosinase (Homo sapiens, UniProt P14679); details: compared to kojic acid; known; cited from earlier work
T1 sequence (P14679 19-529): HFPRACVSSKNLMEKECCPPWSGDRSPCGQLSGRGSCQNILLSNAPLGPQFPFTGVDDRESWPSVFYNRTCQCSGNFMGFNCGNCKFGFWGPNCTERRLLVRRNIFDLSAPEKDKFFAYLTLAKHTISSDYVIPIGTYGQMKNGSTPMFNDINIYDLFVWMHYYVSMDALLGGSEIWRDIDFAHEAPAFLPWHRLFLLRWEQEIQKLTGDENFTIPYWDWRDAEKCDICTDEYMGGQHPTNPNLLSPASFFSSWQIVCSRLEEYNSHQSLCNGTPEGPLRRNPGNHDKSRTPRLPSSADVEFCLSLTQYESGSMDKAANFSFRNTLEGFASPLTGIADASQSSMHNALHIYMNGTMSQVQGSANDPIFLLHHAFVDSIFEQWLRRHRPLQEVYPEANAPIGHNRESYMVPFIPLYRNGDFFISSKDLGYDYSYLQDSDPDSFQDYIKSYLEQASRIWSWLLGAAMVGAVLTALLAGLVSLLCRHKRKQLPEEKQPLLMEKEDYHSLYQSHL

**Q.** What does the source list for `OC[C@H]1O[C@@H](Oc2ccc(O)cc2)[C@H](O)[C@@H](O)[C@@H]1O` [Arbutin, arbutin]?
**A.** Inhibition (%) of tyrosinase activity (mushroom tyrosinase; 125 μg/ml): 38.1%; Inhibition (%) of tyrosinase activity (mushroom tyrosinase; 250 μg/ml): 56.5%; Inhibition (%) of tyrosinase activity (mushroom tyrosinase; 500 μg/ml): 87.7%; IC50 (μg/ml), tyrosinase activity (mushroom tyrosinase; mushroom tyrosinase 10 units, 37° C., 10 minutes): 209.6 µg/mL (≈ 770 µM); Inhibition (%) of melanin production (B16 melanoma cells [1]; 72 hours): 33.7%; Melanin % relative to control (B16 melanoma cells [1]; 72 hours): 66.3 ± 4.7%; inhibition at 100 µg/mL (B16 melanoma cells [1]; Mus musculus, B16, 72 h): 21.2%; % relative to control (MTT absorbance) (B16 melanoma cells [2]; 100 μg/ml, 24 hours): 95.1 ± 4.8%; Toxicity (%) (B16 melanoma cells [2]; 100 μg/ml, 24 hours): 4.9%; Cytotoxicity (in words) (B16 melanoma cells [2]; at a concentration of 100 μg/ml): no cytotoxicity

**Q.** For `O=c1cc(CO)occ1O` [Control, kojic acid], which “Tyrosinase inhibitory effect (%)” value (tyrosinase [3]) is on record?
**A.** Its value is 80%.

**Q.** Which “Partition coefficient (upper layer / lower layer)” value [4] does the source give for `C=CC(C)(C)c1cc(CCCc2cc(O)c(O)c(CC=C(C)C)c2CC=C(C)C)c(O)cc1O` [kazinol C] here?
**A.** Its value is 0.997.

**Q.** And the “Tyrosinase inhibitory effect (in words)” value (tyrosinase [5])?
**A.** The value was “excellent tyrosinase inhibitory effect compared to kojic acid”.
